The record followed here is publication PMC6013238, “Development of novel NEMO-binding domain mimetics for inhibiting IKK/NF-κB activation” (PLoS Biology, 2018).

The test system of the assay is p-IκBα (IKK kinase activity). Nature of the assay: Western blot of p-IκBα after TNF-α in HEK293 cells. The assay is classed as cell-based, human. The settings on record: 100 μM, 30 min pretreatment, TNF-α 10 ng/ml 0, 5, 10 min. As to the method: To confirm that the NBD mimetics reduce IKK kinase activity, phosphorylation of IκBα by IKK in response to 10 ng/ml of TNF-α was measured by western blot at 0, 5, and 10 min after stimulation. […] To determine whether the mimetics also reduce NF-κB DNA binding activity, electrophoretic mobility shift assay (EMSA) was conducted both in vitro and in vivo. […] The addition of acetonitrile increased the stability of both ZINC compounds, especially ZINC 5 (Fig 3D).
Fig 3 Two identified small molecules reduce NF-κB DNA binding activity in vivo and in vitro. (A) Levels of p-IκBα with or without treatment in response to TNF-α were determined by western blot analysis. HEK293 cells were pretreated with DMSO, ZINC12909780 (100 μM), and ZINC5 (100 μM) for 30 min followed by the stimulation of 10 ng/ml of TNF-α for 0, 5, and 10 min. […]
Cell lysate was prepared in RIPA buffer (20 mM Tris-HCl [pH 7.5], 150 mM NaCl, 1 mM Na^2EDTA, 1 mM EGTA, 1% NP-40, 1% sodium deoxycholate, 2.5 mM sodium pyrophosphate, 1 mM beta-glycerophosphate, 1 mM Na3VO4, and 1 μg/ml leupeptin), supplemented with 1X protease inhibitor cocktails (MilliporeSigma, St. Louis, MO) and 1X Halt phosphatase inhibitor cocktail (ThermoFisher, Waltham, MA). Protein concentrations were determined by Lowry protein assays, and 30 μg of protein was resolved by MINI-PROTEAN TGX 4%–15% SDS-PAGE gels. […]
For orientation: In western blotting, separated proteins are transferred to a membrane and probed.

On to `O=C(COC(=O)Cc1ccccc1F)Nc1ccc(Cl)cn1` [ZINC5], for which the “Level of p-IκBα following TNF-α stimulation” value is “reduced the level of p-IκBα”.

For `Nc1ncccc1C(=O)OCC(=O)Nc1ccc(Cl)cc1F` [ZINC12909780], the “Level of p-IκBα following TNF-α stimulation” value was “less robust reduction”.
